Type in all cases: biochemical
The target of one experiment is T1, arylsulfatase B (ASB) (Homo sapiens, UniProt P15848).
T1 construct: from tissue; host or cells: dried blood spot (3 mm punch)
Kind of experiment: ASB (MPS-VI) assay with beta-NGA and Z-PUG-NAc, UHPLC-MS/MS. As for the experimental part: Having established the action of human hexosaminidase A on the ASB substrate, the ASB assay was developed, using the same approach developed for GALNS, namely adding beta-NGA and Z-PUG-NAc. The experiments were carried out as for the GALNS assays (see Example 10) but with 1 mM ASB substrate replacing the GALNS substrate.
Experiment 1. A 3 mm punch of a dried blood spot from a random newborn is incubated with 0.03 mL of assay cocktail consisting of 1 mM GALNS substrate in 50 mM ammonium formate pH 4.0 containing 7.5 mM barium acetate, 5.0 mM cerium acetate, 1 mM Z-PUG-NAc, and 0.01 mg of bacterial beta-N-acetylgalactosaminidase. The mixture also contains 0.005 mM internal standard. After 16 hrs at 37° C. with shaking, the mixture is quenched with 0.12 mL of acetonitrile and the sample plate is centrifuged to pellet the precipitate. Supernatant (0.12 mL) is transferred to a new plate, and 0.12 mL of water is added. The plate is placed on the autosampler of the UHPLC-MS/MS instrument (Waters Xevo TQ MS/MS with a Waters Acquity UHPLC system). A portion of the sample (0.01 mL) is injected, and the GALNS product (substrate minus sulfate), the internal standard, and the aglycones derived from the GALNS product and internal standard are quantified by multiple reaction monitoring (MS/MS). Note the internal standard added, like the GALNS product, is converted to its aglycone by the addition of bacterial beta-N-acetylgalactosaminidase.

The target in experiment [1] is T2, Recombinant human hexosaminidase A (Homo sapiens, UniProt P06865).
T2 sequence (P06865 89-529): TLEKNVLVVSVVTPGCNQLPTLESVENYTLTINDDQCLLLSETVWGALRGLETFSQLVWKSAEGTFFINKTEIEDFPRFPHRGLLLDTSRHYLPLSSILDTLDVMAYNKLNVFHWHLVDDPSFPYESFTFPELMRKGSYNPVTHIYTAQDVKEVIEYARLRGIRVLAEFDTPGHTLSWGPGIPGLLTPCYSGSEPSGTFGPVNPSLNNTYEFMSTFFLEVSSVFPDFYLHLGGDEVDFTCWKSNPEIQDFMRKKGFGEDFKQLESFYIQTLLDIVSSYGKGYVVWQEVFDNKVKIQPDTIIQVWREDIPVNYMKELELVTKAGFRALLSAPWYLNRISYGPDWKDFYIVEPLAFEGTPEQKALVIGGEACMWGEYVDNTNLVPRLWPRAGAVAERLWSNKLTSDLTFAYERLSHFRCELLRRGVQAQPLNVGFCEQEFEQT
T2 sequence (P07686 122-556 partner): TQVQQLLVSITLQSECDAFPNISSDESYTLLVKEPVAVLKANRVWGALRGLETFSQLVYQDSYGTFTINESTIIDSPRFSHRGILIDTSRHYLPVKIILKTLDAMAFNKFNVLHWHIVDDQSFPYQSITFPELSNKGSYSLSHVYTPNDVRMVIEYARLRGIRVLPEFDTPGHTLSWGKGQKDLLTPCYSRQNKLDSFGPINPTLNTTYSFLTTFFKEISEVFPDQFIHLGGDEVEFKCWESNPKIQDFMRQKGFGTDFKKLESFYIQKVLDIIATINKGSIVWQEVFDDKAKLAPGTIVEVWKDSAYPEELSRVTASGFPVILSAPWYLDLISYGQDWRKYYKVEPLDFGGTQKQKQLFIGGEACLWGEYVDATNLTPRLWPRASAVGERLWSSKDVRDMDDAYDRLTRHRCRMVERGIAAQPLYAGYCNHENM
Kind of experiment: Action of hexosaminidase A on ASB substrate, UHPLC-MS/MS. The conditions noted are these: 1 mM ASB substrate, 100 mM ammonium formate pH 5.6, 5 hrs at 37° C. As for the experimental part:
The mixture includes 1 mM ASB substrate in 100 mM ammonium formate buffer, pH 5.6 containing the indicated amount of hexosaminidase. After incubation for 5 hrs at 37° C., the mixture is analyzed by UHPLC-MS/MS. The aglycone signal is not due to contamination of the substrate with aglycone because no aglycone is seen when hexosaminidase A is omitted. The aglycone is not the result of cleavage of the ASB in the electrospray ionization source of the mass spectrometer because the amount of aglycone increases with increasing hexosaminidase A (FIG. 1), and the UHPLC retention time of the aglycone matches that of an authentic aglycone, and this is different than the retention time of the ASB substrate. Thus, hexosaminidase A acts on the ASB substrate to produce algycone. Because hexosaminidase A acts on ASB substrate to produce algycone, this enzyme cannot be used in a coupled assay of ASB, and furthermore it is important to inhibit hexosaminidase A so as not to generate aglycone directly from the ASB substrate.

The target of experiment [2] is T3, iduronate-2-sulfatase (MPS-II enzyme) (Homo sapiens, UniProt P22304).
T3 construct: from tissue; host or cells: dried blood spot (3 mm punch)
T3 sequence (P22304 34-550): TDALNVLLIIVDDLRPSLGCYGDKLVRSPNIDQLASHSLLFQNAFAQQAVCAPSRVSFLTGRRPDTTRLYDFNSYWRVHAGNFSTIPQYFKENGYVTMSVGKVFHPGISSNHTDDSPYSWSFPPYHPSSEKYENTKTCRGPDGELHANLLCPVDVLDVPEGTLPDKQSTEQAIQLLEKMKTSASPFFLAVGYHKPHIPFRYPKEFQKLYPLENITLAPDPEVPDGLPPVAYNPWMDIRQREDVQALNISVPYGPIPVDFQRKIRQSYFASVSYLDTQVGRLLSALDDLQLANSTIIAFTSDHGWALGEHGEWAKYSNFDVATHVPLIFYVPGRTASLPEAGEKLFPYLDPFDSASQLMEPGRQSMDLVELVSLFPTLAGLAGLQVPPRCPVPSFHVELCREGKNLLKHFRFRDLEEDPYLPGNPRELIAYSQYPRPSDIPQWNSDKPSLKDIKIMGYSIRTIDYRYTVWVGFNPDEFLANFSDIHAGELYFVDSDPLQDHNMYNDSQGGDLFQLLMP
As to the kind of experiment: MPS-II enzyme assay with dried blood spot punch, tandem mass spectrometry. As for the experimental part:
The original and alternative MPS-II substrates were compared in side-by-side enzyme assays as follows: 1 mM substrate, 5 uM internal standard in 30 uL of buffer (100 mM ammonium formate, pH 4.0, 7.5 mM barium(II) acetate, 5.0 mM cerium(III) acetate). A 3 mm punch of a dried blood spot was added, and the mixtures were incubated with shaking for 16 hours at 37 deg C. The reactions were quenched by addition of 200 uL of 44 mM citric acid followed by addition of 400 uL ethyl acetate and 100 uL of water. After mixing up and down a few times with the pipet, the samples were centrifuged (10 min at 3000 rpm) to separate the liquid layers. A 200 uL portion of the upper ethyl acetate layer was transferred to a new well, and solvent was removed by evaporation with a stream of oil-free air. The residue was taken up in 100 uL of methanol/5 mM aqueous ammonium formate (80/20, v/v) and infused into the tandem mass spectrometer. The barium and cerium salts are present to precipitate free sulfate and phosphate present in the dried blood spot since these anions cause production inhibition of the MPS-II enzyme. The citric acid is used to acidify the mixture so that the carboxylate of the iduronic acid portion of the MPS-II product and internal standard is protonated and is extracted into ethyl acetate. […]

Experiment [3] addresses T4, N-acetylgalactosamine-4-sulfate-sulfatase (MPS-VI enzyme) (Homo sapiens, UniProt P15848).
T4 construct: from tissue; host or cells: dried blood spot (3 mm punch)
Kind of experiment: MPS-VI enzyme assay with dried blood spot punch, tandem mass spectrometry. As for the experimental part:
The original and alternative MPS-VI substrates were compared in side-by-side enzyme assays as follows: 1 mM substrate, 10 uM internal standard in 30 uL of buffer (100 mM ammonium formate, pH 4.0, 7.5 mM barium(II) acetate, 5.0 mM cerium(III) acetate). A 3 mm punch of a dried blood spot was added, and the mixtures were incubated with shaking for 16 hours at 37 deg C. The reactions were quenched by addition of an aqueous suspension (1:1) of DEAE cellulose (Whatmann DE52) (100 uL), followed by addition of 400 uL of ethyl acetate. The mixture was mixed by up and down pipetting a few times and then centrifuged (10 min at 3000 rpm) to separate the liquid layers and pellet the DE52. A 300 uL portion of the upper ethyl acetate layer was transferred to a new well, and solvent was removed by evaporation with a stream of oil-free air. The residue was taken up in 100 uL of methanol/5 mM aqueous ammonium formate (80/20, v/v) and infused into the tandem mass spectrometer. The barium and cerium salts are present to precipitate free sulfate and phosphate present in the dried blood spot since these anions cause production inhibition of the MPS-VI enzyme. The DE52 is added to trap remaining substrate so only product and internal standard (which are charge neutral) are extracted into ethyl acetate. […]

Where [4] appears, read: Expt. 1: 3 mm dried blood spot punch, 1 mM Z-PUG-NAc, 0.01 mg beta-NGA.
[5] abbreviates: Expt. 2: 3 mm filter paper punch (no blood), 1 mM Z-PUG-NAc, 0.01 mg of bacterial enzyme.
[6] abbreviates: Expt. 3: 3 mm dried blood spot punch, 1 mM Z-PUG-NAc, no beta-NGA.
Where [7] appears, read: Expt. 4: 3 mm filter paper punch (no blood), nothing added.
Where [8] appears, read: 1 mM substrate, 3 mm dried blood spot punch, pH 4.0, 16 hours at 37 deg C.
The mark [9] stands for this setting: activity with dried blood spot punch to that with blood-free punch.

Several values for one entry are separate records, joined by “and”; a condition that tells them apart may be missing. Equal values may be shown once. Where a name gives a salt, the structure may show the parent alone.

Consider three compounds from patent US10196668B2, “Reagents and methods for screening MPS I, II, IIIA, IIIB, IVA, VI, and VII” (University of Washington through its Center for …, priority 2013, dated 2019).

T1 sequence (P15848 37-533): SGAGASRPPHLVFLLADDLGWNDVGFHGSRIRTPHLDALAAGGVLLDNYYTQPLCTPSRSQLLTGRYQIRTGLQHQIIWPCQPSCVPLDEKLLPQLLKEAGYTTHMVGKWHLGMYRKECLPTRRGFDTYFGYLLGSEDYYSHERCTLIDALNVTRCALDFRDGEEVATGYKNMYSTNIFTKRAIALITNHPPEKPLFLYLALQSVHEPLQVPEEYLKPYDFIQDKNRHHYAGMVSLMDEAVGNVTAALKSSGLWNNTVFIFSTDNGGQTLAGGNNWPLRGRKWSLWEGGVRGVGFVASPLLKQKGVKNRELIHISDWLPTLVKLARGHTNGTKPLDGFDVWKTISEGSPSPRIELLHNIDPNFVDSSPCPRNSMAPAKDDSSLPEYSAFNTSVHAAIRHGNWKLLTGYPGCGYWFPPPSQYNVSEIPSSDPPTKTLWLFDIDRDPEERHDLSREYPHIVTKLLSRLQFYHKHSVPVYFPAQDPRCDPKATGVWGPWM
T4 sequence (P15848 37-533): as above

For `CCCCC(=O)N(CCCCCNC(=O)c1ccccc1)CCC(=O)Nc1ccc(OC2OC(CO)C(OS(=O)(=O)O)C(O)C2NC(C)=O)cc1` (stereo not shown) [ASB substrate], the “ASB product (substrate without sulfate) peak area” value at arylsulfatase B (ASB) (setting [4]) was 154,000; on arylsulfatase B (ASB) (setting [5]) it was 404; on arylsulfatase B (ASB) (setting [6]), 371,000; at arylsulfatase B (ASB) (setting [7]), 3,340 and 3,430. Further, the “aglycone peak area (product without sugar)” value on arylsulfatase B (ASB) (setting [4]) is listed as 1,570,000; at arylsulfatase B (ASB) (setting [5]), 58,300; on arylsulfatase B (ASB) (setting [6]), 39,900; at arylsulfatase B (ASB) (setting [7]) it was 33,800. In addition, the “aglycone release from substrate by hexosaminidase A” value in experiment [1] was “acts on the ASB substrate to liberate aglycone”.
For the compound `CCCCC(=O)N(CCCCCCNC(=O)c1ccccc1)CCC(=O)Nc1ccc(OC2OC(C(=O)O)C(O)C(O)C2OS(=O)(=O)O)cc1` (stereo not shown) [Alternative MPS-II], in experiment [2] (setting [8]), the “Enzymatic Activity” value is 6 umole/hr/L blood. Moreover, the “blood-no blood assay ratio” value in experiment [2] (setting [9]) came to 53.
Turning to `CCCCC(=O)N(CCCCCNC(=O)c1ccccc1)CCC(=O)Nc1ccc(OC2OC(CO)C(OS(=O)(=O)O)C(O)C2NC(C)=O)cc1` [Alternative MPS-VI, Sodium (2R,3R,4R,5R,6S)-5-acetamido-6(4(3-(N (5-benzamidopentyl)-pentanamido)propanamido)phenoxy)-4-hydroxy-2-(hydroxymethyl)tetrahydro-2H-pyran-3-yl sulfate], in experiment [3] (setting [8]), the “Enzymatic Activity” value was 1.5 umole/hr/L blood. Further, the “blood-no blood assay ratio” value in experiment [3] (setting [9]) is 77.9.
